In patent US20090131481A1, “Transcription Factor Modulating Compounds and Methods of Use Thereof” (Paratek Pharmaceuticals, Inc., published 2009):
Like-named read-outs stand apart in the source and are kept apart here.

Columns and labels:
SoxS = molecular target: T1, SoxS (Escherichia coli, UniProt P0A9E2); assay: Chemiluminescence-based SoxS-DNA binding assay; set-up: made in house; species or system E. coli; settings: for EC50: dose response analysis (footnote c), read-out: in vitro SoxS activity: concentration necessary to inhibit DNA-protein binding by 50% (EC50)
T1 sequence (P0A9E2 1-107): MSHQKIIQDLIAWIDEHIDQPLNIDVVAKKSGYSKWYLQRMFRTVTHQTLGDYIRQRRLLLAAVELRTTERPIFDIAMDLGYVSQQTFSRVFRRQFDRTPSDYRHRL

LcrF (VirF) = LcrF (VirF) (Yersinia pestis, UniProt P28808); assay: biochemical; assay type: binding, Y. pseudotuberculosis; settings: EC50 for inhibition of LcrF(VirF)-DNA binding
Sequence of LcrF (VirF) (P28808 whole entry, looked up): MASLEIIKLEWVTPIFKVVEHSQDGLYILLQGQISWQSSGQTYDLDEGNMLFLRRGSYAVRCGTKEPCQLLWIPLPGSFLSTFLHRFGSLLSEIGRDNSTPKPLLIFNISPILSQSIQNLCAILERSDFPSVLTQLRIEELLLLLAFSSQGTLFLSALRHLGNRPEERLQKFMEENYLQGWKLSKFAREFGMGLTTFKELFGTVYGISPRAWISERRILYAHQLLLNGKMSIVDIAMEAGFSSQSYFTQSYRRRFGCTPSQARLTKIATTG

ExsA = molecular target: T2, ExsA (Pseudomonas aeruginosa, UniProt P26993); assay: Chemiluminescence-based ExsA-DNA binding assay; set-up: species or system P. aeruginosa; settings: Table 7, cell-free system; read-out: ExsA EC50
T2 construct: made in house
T2 sequence (P26993 1-278): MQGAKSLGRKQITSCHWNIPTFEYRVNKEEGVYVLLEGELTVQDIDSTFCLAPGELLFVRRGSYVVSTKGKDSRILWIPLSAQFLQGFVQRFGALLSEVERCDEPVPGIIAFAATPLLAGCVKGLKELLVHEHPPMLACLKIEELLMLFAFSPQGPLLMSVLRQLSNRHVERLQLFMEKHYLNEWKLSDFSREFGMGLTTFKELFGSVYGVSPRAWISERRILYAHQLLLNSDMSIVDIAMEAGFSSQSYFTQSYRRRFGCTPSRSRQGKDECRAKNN

Y. pseudotuberculosis = assay: microbe, parasite or virus in culture; settings: Yersinia pseudotuberculosis, J774, read-out: % Cytotoxicity
E. coli UPEC strain C189 = assay: Ascending pyelonephritis model of infection (Example 3); assay type: in vivo; settings: female CD1 mice, oral dosing at infection and once a day for 4 days, 5-day infection
P. aeruginosa = P. aeruginosa cytotoxicity whole cell assay (J774 cells, LDH release); settings: relative to vehicle treated cells infected with wild type P. aeruginosa
[1] = read-out: % Inhibition (SoxS binding to DNA)

O=C(Nc1ccc(-c2nc3ccc([N+](=O)[O-])cc3n2O)cc1)c1ccc(Cl)cc1 [CE]
inhibition at 25 µg/mL (SoxS; compound screening concentration of 25 μg/ml (footnote d), read-out: in vitro SoxS activity: percent inhibition of DNA-protein binding): > 70%

O=[N+]([O-])c1ccc2nc(-c3ccc(Oc4ccccc4)cc3)n(O)c2c1 [BW]
inhibition at 50 µg/mL (SoxS; [1]): 0 to 29%

CN(C)c1cccc(-c2nc3ccc([N+](=O)[O-])cc3n2O)c1 [BV]
inhibition at 50 µg/mL (SoxS; [1]): 0 to 29%

Cc1ccc(C(=O)Nc2ccc(-c3nc4ccc([N+](=O)[O-])cc4n3O)cc2)cc1 [D]
EC50 (LcrF (VirF)): 10 to 25 µM
EC50 (ExsA): < 10 µM
EC50 (SoxS): 1 to 4.9 µM
activity at 50 µg/mL (Y. pseudotuberculosis): < 75%

CC(C)(C)c1ccc2nc(-c3ccccc3)n(O)c2c1 [BH]
inhibition at 50 µg/mL (SoxS; [1]): < 0%

O=C(O)CCn1c(-c2ccccc2)nc2ccc([N+](=O)[O-])cc21 [AO]
inhibition at 50 µg/mL (SoxS; [1]): < 0%

COc1ccc2nc(-c3ccccc3)n(O)c2c1 [AZ]
inhibition at 50 µg/mL (SoxS; [1]): < 0%

CC(=O)Nc1ccc(-c2nc3ccc([N+](=O)[O-])cc3n2O)cc1 [CH]
inhibition at 50 µg/mL (SoxS; [1]): > 70%

CCCOn1c(-c2ccccc2)nc2ccc([N+](=O)[O-])cc21 [AR]
inhibition at 50 µg/mL (SoxS; [1]): < 0%

O=C(O)c1cccc(-c2nc3ccc([N+](=O)[O-])cc3n2O)c1 [BU]
Efficacy (log10 decrease in the CFU/g kidney tissue) (E. coli UPEC strain C189): *** (exhibited a 0-1.0 log decrease in CFU/g)
EC50 (SoxS): > 5 µM

O=[N+]([O-])c1ccc2nc(-c3ccccc3)n(OCCO)c2c1 [AS]
inhibition at 50 µg/mL (SoxS; [1]): < 0%

CC(=NO)c1ccc2nc(-c3ccccc3)n(O)c2c1 [BJ]
inhibition at 50 µg/mL (SoxS; [1]): 30 to 69%

O=[N+]([O-])c1ccc2nc(-c3ccc(Br)cc3)n(O)c2c1 [CA]
inhibition at 50 µg/mL (SoxS; [1]): 0 to 29%

COn1c(-c2ccccc2)nc2ccc([N+](=O)[O-])cc21 [BR]
inhibition at 50 µg/mL (SoxS; [1]): 0 to 29%

O=C(NCc1ccc(-c2nc3ccc([N+](=O)[O-])cc3n2O)cc1)c1ccccc1 [CD]
inhibition at 50 µg/mL (SoxS; [1]): 30 to 69%

N#Cc1ccc2nc(-c3ccccc3)n(O)c2c1 [BC]
inhibition at 50 µg/mL (SoxS; [1]): 30 to 69%

O=C(Nc1ccc(-c2nc3ccc([N+](=O)[O-])cc3n2O)cc1)c1cccc(Cl)c1 [CG]
EC50 (SoxS): 1 to 4.9 µM

CN(C)c1ccc2nc(-c3ccccc3)n(O)c2c1 [BF]
inhibition at 50 µg/mL (SoxS; [1]): 0 to 29%

CC(=O)c1ccc2nc(-c3ccccc3)n(O)c2c1 [AW]
inhibition at 50 µg/mL (SoxS; [1]): 30 to 69%

CC(=O)Nc1cccc(-c2nc3ccc([N+](=O)[O-])cc3n2O)c1 [BT]
inhibition at 50 µg/mL (SoxS; [1]): 30 to 69%

O=C(Nc1ccc(-c2nc3ccc([N+](=O)[O-])cc3n2O)cc1)c1ccc(F)c(F)c1 [DA]
EC50 (LcrF (VirF)): 10 to 25 µM
EC50 (ExsA): 10 to 25 µM
activity at 50 µg/mL (Y. pseudotuberculosis): < 75%
Cytotoxicity at 50 μg/mL Pseudomonas (P. aeruginosa): * (reduced P. aeruginosa cytotoxicity to 99-75% of untreated, wild type levels at 50 mg/mL)

O=[N+]([O-])c1ccc2nc(-c3ccccc3)n(O)c2c1 [GB]
inhibition at 50 µg/mL (SoxS; [1]): 30 to 69%

On1c(-c2ccccc2)nc2ccc(C(F)(F)F)cc21 [AX]
inhibition at 50 µg/mL (SoxS; [1]): 0 to 29%

NCCOn1c(-c2ccccc2)nc2ccc([N+](=O)[O-])cc21 [BE]
inhibition at 50 µg/mL (SoxS; [1]): < 0%

CS(=O)(=O)c1ccc2nc(-c3ccccc3)n(O)c2c1 [BI]
inhibition at 50 µg/mL (SoxS; [1]): 30 to 69%

O=[N+]([O-])c1ccc2nc(-c3ccc(O)cc3)n(O)c2c1 [BG]
inhibition at 50 µg/mL (SoxS; [1]): 30 to 69%

COc1cc(NC(=O)/C=C/c2ccc(F)cc2)ccc1-c1nc2ccc([N+](=O)[O-])cc2n1O [ET]
EC50 (LcrF (VirF)): 10 to 25 µM
EC50 (ExsA): 10 to 25 µM
activity at 50 µg/mL (Y. pseudotuberculosis): < 75%
Cytotoxicity at 50 μg/mL Pseudomonas (P. aeruginosa): * (reduced P. aeruginosa cytotoxicity to 99-75% of untreated, wild type levels at 50 mg/mL)

CC(=O)c1ccc(C(=O)Nc2ccc(-c3nc4ccc([N+](=O)[O-])cc4n3O)nc2)cc1 [DR]
EC50 (LcrF (VirF)): > 25 µM
EC50 (ExsA): 10 to 25 µM
activity at 50 µg/mL (Y. pseudotuberculosis): < 75%
Cytotoxicity at 50 μg/mL Pseudomonas (P. aeruginosa): * (reduced P. aeruginosa cytotoxicity to 99-75% of untreated, wild type levels at 50 mg/mL)

Cc1cc(C(=O)Nc2ccc(-c3nc4ccc([N+](=O)[O-])cc4n3O)cc2)ccc1F [DD]
EC50 (LcrF (VirF)): 10 to 25 µM
EC50 (ExsA): 10 to 25 µM
activity at 50 µg/mL (Y. pseudotuberculosis): < 75%
Cytotoxicity at 50 μg/mL Pseudomonas (P. aeruginosa): * (reduced P. aeruginosa cytotoxicity to 99-75% of untreated, wild type levels at 50 mg/mL)

O=C(Nc1ccc(-c2nc3ccc([N+](=O)[O-])cc3n2O)cn1)c1ccc(F)cc1 [DU]
EC50 (LcrF (VirF)): 10 to 25 µM
EC50 (ExsA): 10 to 25 µM
activity at 50 µg/mL (Y. pseudotuberculosis): < 75%
Cytotoxicity at 50 μg/mL Pseudomonas (P. aeruginosa): * (reduced P. aeruginosa cytotoxicity to 99-75% of untreated, wild type levels at 50 mg/mL)

O=C(Nc1ccc(-c2nc3ncc([N+](=O)[O-])cc3n2O)cc1)c1ccc(F)cc1 [DI]
EC50 (LcrF (VirF)): 10 to 25 µM
EC50 (ExsA): 10 to 25 µM
activity at 50 µg/mL (Y. pseudotuberculosis): < 75%
Cytotoxicity at 50 μg/mL Pseudomonas (P. aeruginosa): * (reduced P. aeruginosa cytotoxicity to 99-75% of untreated, wild type levels at 50 mg/mL)

O=C(/C=C/c1ccc(F)c(CP(=O)(O)O)c1)Nc1ccc(-c2nc3ccc([N+](=O)[O-])cc3n2O)cc1 [DX]
EC50 (LcrF (VirF)): 10 to 25 µM
EC50 (ExsA): 10 to 25 µM
activity at 50 µg/mL (Y. pseudotuberculosis): < 75%
Cytotoxicity at 50 μg/mL Pseudomonas (P. aeruginosa): * (reduced P. aeruginosa cytotoxicity to 99-75% of untreated, wild type levels at 50 mg/mL)

N#Cc1ccc(C(=O)Nc2ccc(-c3nc4ccc([N+](=O)O)cc4n3O)cc2)cc1 [E]
Efficacy (log10 decrease in the CFU/g kidney tissue) (E. coli UPEC strain C189): ** (exhibited a 1.1-2.0 log decrease in CFU/g)
EC50 (LcrF (VirF)): 10 to 25 µM
EC50 (ExsA): 10 to 25 µM
activity at 50 µg/mL (Y. pseudotuberculosis): < 75%

On1c(-c2ccccc2)nc2ccc(F)cc21 [AY]
inhibition at 50 µg/mL (SoxS; [1]): 0 to 29%

On1c(-c2ccccc2)nc2ccccc21 [AT]
inhibition at 50 µg/mL (SoxS; [1]): < 0%

COc1cc(NC(=O)c2ccc(C(C)=O)cc2)ccc1-c1nc2ccc([N+](=O)[O-])cc2n1O [ES]
EC50 (LcrF (VirF)): > 25 µM
EC50 (ExsA): 10 to 25 µM
activity at 50 µg/mL (Y. pseudotuberculosis): < 75%
Cytotoxicity at 50 μg/mL Pseudomonas (P. aeruginosa): ** (reduced P. aeruginosa cytotoxicity below 75% of untreated, wild type levels at 50 mg/mL)

O=C(O)c1ccc2nc(-c3ccccc3)n(O)c2c1 [BA]
inhibition at 50 µg/mL (SoxS; [1]): 0 to 29%

O=C(Nc1ccc(-c2nc3ccc([N+](=O)[O-])cc3n2O)cc1)c1ccccc1O [DN]
EC50 (LcrF (VirF)): 10 to 25 µM
EC50 (ExsA): 10 to 25 µM
activity at 50 µg/mL (Y. pseudotuberculosis): < 75%
Cytotoxicity at 50 μg/mL Pseudomonas (P. aeruginosa): * (reduced P. aeruginosa cytotoxicity to 99-75% of untreated, wild type levels at 50 mg/mL)

Nc1ccccc1-c1nc2ccc([N+](=O)[O-])cc2n1O [BN]
inhibition at 50 µg/mL (SoxS; [1]): 0 to 29%

Nc1cccc(-c2nc3ccc([N+](=O)[O-])cc3n2O)c1 [BO]
inhibition at 50 µg/mL (SoxS; [1]): 30 to 69%
inhibition at 50 µg/mL (SoxS; read-out: in vitro SoxS activity: percent inhibition of DNA-protein binding): < 29%

CCOC(=O)COn1c(-c2ccccc2)nc2ccc([N+](=O)[O-])cc21 [AP]
inhibition at 50 µg/mL (SoxS; [1]): < 0%

Nc1ccc(-c2nc3ccc([N+](=O)[O-])cc3n2O)cc1 [BL]
inhibition at 50 µg/mL (SoxS; [1]): > 70%

N#Cc1ccc2nc(-c3ccc(NC(=O)c4ccc(F)cc4)cc3)n(O)c2c1 [CV]
EC50 (LcrF (VirF)): > 25 µM
EC50 (ExsA): 10 to 25 µM
activity at 50 µg/mL (Y. pseudotuberculosis): < 75%
Cytotoxicity at 50 μg/mL Pseudomonas (P. aeruginosa): * (reduced P. aeruginosa cytotoxicity to 99-75% of untreated, wild type levels at 50 mg/mL)

O=C(/C=C/c1ccc(F)cc1)Nc1ccc(-c2nc3ccc([N+](=O)[O-])cc3n2O)cc1F [EL, (E)-N-[2-Fluoro-4-(1-hydroxy-6-nitro-1H-benzoimidazol-2-yl)-phenyl]-3-(4-fluoro-phenyl)-acrylamide]
EC50 (LcrF (VirF)): 10 to 25 µM
EC50 (ExsA): 10 to 25 µM
activity at 50 µg/mL (Y. pseudotuberculosis): < 75%
Cytotoxicity at 50 μg/mL Pseudomonas (P. aeruginosa): * (reduced P. aeruginosa cytotoxicity to 99-75% of untreated, wild type levels at 50 mg/mL)

O=C(Nc1ccc(-c2nc3ccc([N+](=O)[O-])cc3n2O)cc1)c1ccccc1 [A]
EC50 (LcrF (VirF)): 10 to 25 µM
EC50 (ExsA): 10 to 25 µM
inhibition at 50 µg/mL (SoxS; [1]): > 70%

COc1ccc(-c2nc3ccc([N+](=O)[O-])cc3n2O)cc1 [AV]
inhibition at 50 µg/mL (SoxS; [1]): 0 to 29%

N#CCOn1c(-c2ccccc2)nc2ccc([N+](=O)[O-])cc21 [BD]
inhibition at 50 µg/mL (SoxS; [1]): 0 to 29%

O=C(O)COn1c(-c2ccccc2)nc2ccccc21 [AQ]
inhibition at 50 µg/mL (SoxS; [1]): 0 to 29%
